The subject of assay [1] is HAP1 MTAP-deleted cell line. Kind of assay: SDMA in-cell western assay, HAP1 MTAP-deleted. It counts as cell-based. As to conditions: for IC50: Homo sapiens, HAP1, SDMA in-cell western, HAP1 MTAP-deleted; for MTAP intact/deleted ratio: SDMA in-cell western. In outline:
(§1)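 MTAP-null vs endogenous-MTAP HAP1 isogenic cells; in-cell western SDMA readout; IC50 per line.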

Assay [2] deals with T1, PRMT5 (Homo sapiens, UniProt O14744).
T1 construct: purchased Viva (custom protein)
Kind of assay: PRMT5 biochemical IC50 assay with MTA as cofactor. As to conditions: PRMT5, MTA as cofactor; read-out: MTA IC50.

The subject of assay [3] is HAP1 MTAP-intact cell line. Kind of assay: SDMA in-cell western assay, HAP1 MTAP-intact. As to conditions: Homo sapiens, HAP1, SDMA in-cell western, HAP1 MTAP-intact; read-out: MTAP HAP1 intact IC50. It counts as cell-based. In outline:
as §1

For assay [4], the system named is HAP1 MTAP-deleted cell line. Description: Viability assay, MTAP-deleted cell line. It counts as cell-based. The settings on record: Homo sapiens, read-out: HAP1 MTAP deleted viability. The text has this: Table 1 additionally indicates IC50 values in a viability assay for the MTAP-deleted cell line (column 10), indicating the effect of treatment with compound on cell survival.

Assay [5] concerns the target T1, PRMT5. Kind of assay: PRMT5 biochemical IC50 assay with no cofactor. The settings on record: PRMT5, no cofactor. The text has this: Table 1 indicates IC50 values (μM) against PRMT5 for exemplary compounds in the presence of SAM as cofactor, with no cofactor, and with MTA as cofactor, respectively (columns 4-6). […] Ki values can be calculated from the IC50 values as described in the Examples section. As detailed in the Examples section, for the assay performed in the presence of SAM, IC50=Ki×1.5 (Ki=IC50/1.5).

Assay [6] deals with T1, PRMT5. Kind of assay: PRMT5 biochemical IC50 assay with SAM as cofactor. The settings on record: PRMT5, SAM as cofactor; read-out: SAM IC50.
The mark [7] stands for this setting: read-out: HAP1 MTAP deleted IC50.
Where [8] appears, read: HAP1, viability assay, MTAP-deleted cell line.
Setting [9] is: read-out: HAP 1 MTAP deleted IC50.
Where [10] appears, read: IC50 ratio HAP1 MTAP-intact / HAP1 MTAP-deleted.
[11] abbreviates: HAP1, viability, HAP1 MTAP-deleted cell line.
[12] abbreviates: read-out: No Cofactor/ rel IC50.
Where [13] appears, read: HAP1, viability assay, HAP1 MTAP-deleted.

T1 sequence (O14744 whole entry): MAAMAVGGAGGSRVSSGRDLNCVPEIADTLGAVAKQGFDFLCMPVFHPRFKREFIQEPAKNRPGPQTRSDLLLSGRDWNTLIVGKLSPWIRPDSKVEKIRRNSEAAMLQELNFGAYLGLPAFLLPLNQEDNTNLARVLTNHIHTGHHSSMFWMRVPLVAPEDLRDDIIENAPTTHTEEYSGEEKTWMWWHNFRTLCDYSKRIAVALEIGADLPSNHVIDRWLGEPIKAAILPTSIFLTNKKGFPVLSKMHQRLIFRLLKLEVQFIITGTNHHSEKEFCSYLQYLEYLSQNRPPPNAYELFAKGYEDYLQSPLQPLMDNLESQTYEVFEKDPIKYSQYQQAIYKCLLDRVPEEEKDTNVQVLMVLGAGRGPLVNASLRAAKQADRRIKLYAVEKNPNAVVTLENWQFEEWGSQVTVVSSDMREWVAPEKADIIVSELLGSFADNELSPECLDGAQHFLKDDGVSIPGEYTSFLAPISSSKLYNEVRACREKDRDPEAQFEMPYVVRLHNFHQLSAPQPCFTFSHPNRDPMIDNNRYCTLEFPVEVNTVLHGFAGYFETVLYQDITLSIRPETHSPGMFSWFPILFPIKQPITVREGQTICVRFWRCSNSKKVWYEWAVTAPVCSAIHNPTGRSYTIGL
T1 sequence (Q9BQA1 whole entry partner): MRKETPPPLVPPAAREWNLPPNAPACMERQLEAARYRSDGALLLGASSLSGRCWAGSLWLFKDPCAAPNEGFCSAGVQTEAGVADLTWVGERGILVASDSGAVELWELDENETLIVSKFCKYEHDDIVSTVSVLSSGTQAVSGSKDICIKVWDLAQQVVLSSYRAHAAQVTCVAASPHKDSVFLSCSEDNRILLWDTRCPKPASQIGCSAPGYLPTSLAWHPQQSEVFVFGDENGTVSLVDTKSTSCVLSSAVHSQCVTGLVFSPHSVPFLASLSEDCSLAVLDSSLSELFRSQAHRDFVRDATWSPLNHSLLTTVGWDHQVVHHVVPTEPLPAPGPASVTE

As to `CCc1cc(NC(=O)C(=O)N2C[C@@H](C)CC[C@@H]2c2ccc3sc(C4(F)CCN(C)CC4)nc3c2)cnc1N` [Compound 1160, N-(6-amino-5-ethylpyridin-3-yl)-2-((2R,5S)-2-(2-(4-fluoro-1-methylpiperidin-4-yl)benzo[d]thiazol-5-yl)-5-methylpiperidin-1-yl)-2-oxoacetamide], the IC50 in assay [1] (setting [7]) was under 100 nM; on PRMT5 [2], under 50 nM; in assay [3], under 100 nM; in assay [4] (setting [8]), under 1000 nM; on PRMT5 [5] (read-out: No Cofactor/rel IC50), under 50 nM; on PRMT5 [6], under 50 nM. The MTAP intact/deleted ratio entry in assay [1] (IC50 ratio HAP1 MTAP-intact vs HAP1 MTAP-deleted) is given as “A (an IC50 ratio greater than or equal to 10 fold)”.
For `CCc1cc(NC(=O)C(=O)N2C[C@@H](C)CC[C@@H]2c2ccc3sc([C@H]4CCN(C)C4)nc3c2)cnc1N` (single isomer, unassigned) [Compound 1311], the IC50 was under 100 nM in assay [1] (setting [9]); under 50 nM on PRMT5 [2]; under 100 nM in assay [3]; under 1000 nM in assay [4] (setting [11]); under 50 nM on PRMT5 [5] (setting [12]); under 50 nM on PRMT5 [6]. The “MTAP intact/deleted ratio” value in assay [1] (setting [10]) is on record as “A (an IC50 ratio greater than or equal to 10 fold)”.
Consider `CCc1cc(NC(=O)C(=O)N2C[C@@H](C)CC[C@@H]2c2ccc3sc(C4CCN(C)CC4C)nc3c2)cnc1N` (stereo partly drawn) [Compound 1382, N-(6-amino-5-ethyl-3-pyridyl)-2-[(5S)-2-[2-(1,3-dimethyl-4-piperidyl)-1,3-benzothiazol-5-yl]-5-methyl-1-piperidyl]-2-oxo-acetamide], for which the IC50 in assay [1] (setting [9]) was under 100 nM; on PRMT5 [2], under 50 nM; in assay [3], under 100 nM; in assay [4] (setting [11]) it was under 1000 nM; at PRMT5 [5] (setting [12]), under 50 nM; at PRMT5 [6], under 50 nM. Moreover, the “MTAP intact/deleted ratio” value in assay [1] (setting [10]) is recorded as “A (an IC50 ratio greater than or equal to 10 fold)”.
For `CCc1cc(NC(=O)C(=O)N2C[C@@H](C)CC[C@@H]2c2ccc3sc([C@H]4C[C@@H]5CN(C)C[C@@H]5C4)nc3c2)cnc1N` [Compound 1338, N-(6-amino-5-ethylpyridin-3-yl)-2-((2R,5S)-5-methyl-2-(2-((3aR,5r,6aS)-2-methyloctahydrocyclopenta[c]pyrrol-5-yl)benzo[d]thiazol-5-yl)piperidin-1-yl)-2-oxoacetamide], the IC50 is under 100 nM in assay [1] (setting [9]); under 50 nM at PRMT5 [2]; under 100 nM in assay [3]; under 1000 nM in assay [4] (setting [11]); under 50 nM on PRMT5 [5] (setting [12]); under 50 nM on PRMT5 [6]. For the same compound, the “MTAP intact/deleted ratio” value in assay [1] (setting [10]) is given as “A (an IC50 ratio greater than or equal to 10 fold)”.
Take `Cc1ccc([C@H]2CC[C@H](C)CN2C(=O)C(=O)Nc2cnc(N)c(C)c2)cn1` (single isomer, unassigned) [Compound 707]: the IC50 in assay [1] (setting [7]) was over 1000 nM; on PRMT5 [2], over 500 nM; in assay [3], over 1000 nM; in assay [4] (setting [13]) it was over 10000 nM; at PRMT5 [5] (read-out: No Cofactor/rel IC50), over 500 nM; on PRMT5 [6], over 500 nM. Also, the MTAP intact/deleted ratio result in assay [1] (setting [10]) is “B (an IC50 ratio greater than or equal to 3 fold but lower than 10 fold)”.
On to `Cc1cc(NC(=O)C(=O)N2C[C@H](C)CC[C@H]2c2ccc(-c3nccs3)cc2)cnc1N` (single isomer, unassigned) [Compound 816], for which the IC50 in assay [1] (setting [7]) was over 1000 nM; at PRMT5 [2], over 500 nM; in assay [3] it was over 1000 nM; in assay [4] (setting [13]), over 10000 nM; on PRMT5 [5] (read-out: No Cofactor/rel IC50) it was over 500 nM; at PRMT5 [6], over 500 nM. Besides, the MTAP intact/deleted ratio result in assay [1] (setting [10]) was “C (an IC50 ratio of less than 3 fold)”.
In the case of `CN(C)c1cccc([C@H]2CCCCN2C(=O)C(=O)Nc2cncc(C(N)=O)c2)c1` (single isomer, unassigned) [Compound 366], the IC50 in assay [1] (setting [7]) was over 1000 nM; at PRMT5 [2] it was 50 to 500 nM; in assay [3] it was over 1000 nM; in assay [4] (setting [8]) it was over 10000 nM; at PRMT5 [5] (read-out: No Cofactor/rel IC50), over 500 nM; on PRMT5 [6] it was over 500 nM. In addition, in assay [1] (setting [10]), the MTAP intact/deleted ratio entry was “C (an IC50 ratio of less than 3 fold)”.

Source of the values: US11999727B2 (Tango Therapeutics, Inc., priority 2020, dated 2024).
